According to the Kinase Knowledgebase extract (Sharma et al. 2016):
In brackets after ≈: the same amount, converted by molar mass.

What was measured:
EGFR (human) [1] = molecular target: EGFR (human) (UniProt P00533); details: mda-mb-435
EGFR (human) [2] = molecular target: EGFR (human) (UniProt P00533); details: sw 620
EGFR (human) [3] = molecular target: EGFR (human) (UniProt P00533); details: a431
EGFR (human) [4] = molecular target: EGFR (human) (UniProt P00533); details: sk-br-3
EGFR (human) [5] = molecular target: EGFR (human) (UniProt P00533); details: for inhibition: ht-29, concentration not given here; for IC50: ht-29

Chain of EGFR (human) (P00533 whole entry, looked up): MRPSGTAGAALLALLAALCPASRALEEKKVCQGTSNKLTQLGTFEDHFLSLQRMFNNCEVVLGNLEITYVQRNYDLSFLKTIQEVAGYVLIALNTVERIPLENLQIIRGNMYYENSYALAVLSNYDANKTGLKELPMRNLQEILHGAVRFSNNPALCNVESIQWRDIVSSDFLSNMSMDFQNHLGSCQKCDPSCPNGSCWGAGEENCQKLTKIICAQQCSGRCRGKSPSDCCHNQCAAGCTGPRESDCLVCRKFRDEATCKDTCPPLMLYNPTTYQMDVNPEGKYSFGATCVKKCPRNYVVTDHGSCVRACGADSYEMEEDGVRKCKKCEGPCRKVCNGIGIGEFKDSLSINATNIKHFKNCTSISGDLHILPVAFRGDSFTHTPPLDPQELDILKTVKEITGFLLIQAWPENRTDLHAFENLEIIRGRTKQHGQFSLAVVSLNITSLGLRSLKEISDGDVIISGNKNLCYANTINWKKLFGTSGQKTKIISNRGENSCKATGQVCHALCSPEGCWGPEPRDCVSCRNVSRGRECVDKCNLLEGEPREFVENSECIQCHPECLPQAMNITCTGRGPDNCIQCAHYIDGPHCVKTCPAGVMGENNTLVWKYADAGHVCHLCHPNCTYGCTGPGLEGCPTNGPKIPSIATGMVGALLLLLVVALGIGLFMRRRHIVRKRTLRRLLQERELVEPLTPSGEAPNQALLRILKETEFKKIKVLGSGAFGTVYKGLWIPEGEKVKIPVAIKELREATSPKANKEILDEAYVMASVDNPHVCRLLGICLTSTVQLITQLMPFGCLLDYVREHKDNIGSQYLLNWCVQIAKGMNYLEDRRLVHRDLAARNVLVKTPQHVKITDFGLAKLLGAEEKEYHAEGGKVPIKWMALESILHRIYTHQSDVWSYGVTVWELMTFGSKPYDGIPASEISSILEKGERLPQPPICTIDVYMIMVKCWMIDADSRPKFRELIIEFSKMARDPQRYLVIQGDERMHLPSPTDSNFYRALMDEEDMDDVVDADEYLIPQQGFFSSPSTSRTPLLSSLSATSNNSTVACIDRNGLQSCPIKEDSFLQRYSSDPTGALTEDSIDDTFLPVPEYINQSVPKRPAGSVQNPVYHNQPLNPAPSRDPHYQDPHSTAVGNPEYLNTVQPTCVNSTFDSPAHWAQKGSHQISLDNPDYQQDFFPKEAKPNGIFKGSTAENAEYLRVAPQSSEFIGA

| Compound | IC50 (EGFR (human) [1]) [µg/mL] | IC50 (EGFR (human) [2]) [µg/mL] | IC50 (EGFR (human) [3]) [µg/mL] | IC50 (EGFR (human) [4]) [µg/mL] | inhibition (EGFR (human) [5]) [%] | IC50 (EGFR (human) [5]) [µM] |
| --- | --- | --- | --- | --- | --- | --- |
| COc1cc2cc3c(Nc4ccc(OCc5ccccc5)c(Cl)c4)c(C#N)cnc3cc2cc1OCCN1CCOCC1 | 33.5 (≈ 56.3 µM) | 11.6 (≈ 19.5 µM) | 4.7 (≈ 7.9 µM) | 3.5 (≈ 5.88 µM) |  |  |
| C=CC(=O)Nc1cccc2c1sc1c(Nc3cccc(Br)c3)c(C#N)cnc12 | 3.9 (≈ 8.68 µM) | > 5 | 1.11 (≈ 2.47 µM) | 1.09 (≈ 2.43 µM) |  |  |
| COc1ccc(Cl)c(Nc2c(C#N)cnc3cc4nc[nH]c4cc23)c1 |  |  |  |  | 10 |  |
| COc1cc(Nc2c(C#N)cnc3cc4nc[nH]c4cc23)c(Br)cc1Cl |  |  |  |  | 35 |  |
| N#Cc1cnc2cc3ccccc3cc2c1Nc1ccc(F)c(Cl)c1 | 1.65 (≈ 4.74 µM) | 1.08 (≈ 3.11 µM) | 0.332 (≈ 0.955 µM) | 1.01 (≈ 2.9 µM) |  |  |
| N#Cc1cnc2c(sc3ccccc32)c1Nc1cccc(Br)c1 | > 5 | > 5 | > 5 | > 5 |  |  |
| CCOc1cc2cc3c(Nc4cc(OC)c(Cl)cc4C)c(C#N)cnc3cc2cc1OCCN1CCOCC1 |  |  |  |  |  | > 10 |
| N#Cc1cnc2cc3cc(O)c(O)cc3cc2c1Nc1ccc(Cl)cc1Cl | 0.85 (≈ 2.15 µM) | 0.38 (≈ 0.959 µM) | 0.58 (≈ 1.46 µM) | > 5 |  |  |
| N#Cc1cnc2c(oc3ccccc32)c1Nc1cccc(Br)c1 | > 5 | > 5 | > 5 | > 5 |  |  |
| C=CC(=O)Nc1ccc2sc3c(Nc4cccc(Br)c4)c(C#N)cnc3c2c1 | 1.69 (≈ 3.76 µM) | 1 (≈ 2.23 µM) | 0.838 (≈ 1.86 µM) | 0.224 (≈ 0.499 µM) |  |  |
| COc1cc(Nc2c(C#N)cnc3cc4cc(OCCN5CCOCC5)c(OC)cc4cc23)c(C)cc1Cl |  |  |  |  |  | > 10 |
| COc1cc(Nc2c(C#N)cnc3cc4cc(OCCN5CCOCC5)c(OC)cc4cc23)c(Cl)cc1C |  |  |  |  |  | 9.95 |
| N#Cc1cnc2cc3nc[nH]c3cc2c1Nc1cccc(Br)c1 | 3.48 (≈ 9.56 µM) | 3.72 (≈ 10.2 µM) | 0.58 (≈ 1.59 µM) | 0.6 (≈ 1.65 µM) |  |  |
| COc1cc(Nc2c(C#N)cnc3cc4cc(OCCN5CCN(C)CC5)c(OC)cc4cc23)c(C)cc1Cl |  |  |  |  |  | 8.6 |
| N#Cc1cnc2c(sc3ccc(N)cc32)c1Nc1cccc(Br)c1 | > 5 | > 5 | > 5 | > 5 |  |  |
| COc1cc2cc3ncc(C#N)c(Nc4ccc(F)c(Cl)c4)c3cc2cc1OCCN1CCOCC1 |  | 0.36 (≈ 0.71 µM) | 0.76 (≈ 1.5 µM) | 0.04 (≈ 0.0789 µM) |  |  |
| N#Cc1cnc2cc3nc[nH]c3cc2c1Nc1ccc(Cl)cc1Br |  |  |  |  | 25 |  |
| COc1cc(Nc2c(C#N)cnc3cc4nc[nH]c4cc23)cc(OC)c1OC |  |  |  |  | 0 |  |
| N#Cc1cnc2c(sc3ccc([N+](=O)[O-])cc32)c1Nc1ccc(Cl)cc1Cl | 0.46 (≈ 1.11 µM) | 0.67 (≈ 1.61 µM) | 0.41 (≈ 0.987 µM) | 0.59 (≈ 1.42 µM) |  |  |
